The values that follow are results of earlier work, collected in patent publication US12527813B2, “Methods to stabilize and reverse atherosclerotic lesions by sulfated polysaccharides” (Calroy Health Sciences, LLC, priority 2017, dated 2026).

This data set concerns lipid-rich necrotic core. Conditions: 24 months.

Turning to `CC(C)c1nc(N(C)S(C)(=O)=O)nc(-c2ccc(F)cc2)c1/C=C/[C@@H](O)C[C@@H](O)CC(=O)O` [rosuvastation], the “lumen size and artery stenosis change” value was “virtually no change”. For the same compound, for the setting “5 mg/day”, the “lipid-rich necrotic core reduced, low dose” value was 27%. Also, the “lipid-rich necrotic core reduced, all patients” value (33 patients, low or high dose) is reported as “about 25%”. The “lipid-rich necrotic core reduced, high dose” value (40/80 mg/day) was 19%.
